What was measured:
eGFP-JEV [1] = assay: eGFP-JEV-based HTS assay in Huh7 cells; type: cell-based, Japanese encephalitis virus; conditions: 96-well, cytotoxic and false positive drugs excluded
eGFP-JEV [2] = assay: eGFP expression in eGFP-JEV infected BHK-21 cells; type: cell-based, Japanese encephalitis virus; conditions: BHK-21, eGFP-JEV MOI 0.1, two-fold dilutions, maximum 3 μM, 72 hpi
Cytotoxicity assay = type: cell-based; conditions: human, Huh7 cells
JEV genome RNA = assay: Real-time RT-PCR of viral RNA in WT-JEV infected Huh7 cells; type: cell-based, Japanese encephalitis virus; conditions: WT-JEV MOI 0.5, various dosages, qRT-PCR at 48 hpi
WT-JEV [3] = assay: Antiviral assay of WT-JEV in Huh7 cells, viral titer by plaque assay; conditions: for EC50: Japanese encephalitis virus, Huh-7, read-out: EC50 (50% reduction of viral titer); for SI (selective index, ratio of CC50 to EC50): Huh7 cells
WT-JEV [4] = assay: Time-of-addition assay; type: cell-based, Japanese encephalitis virus; conditions: Huh7, WT-JEV MOI 10, 5 μM, titers at 12 hpi

Structure (SMILES) | hit status after HTS and dose-dependent reconfirmation with eGFP-JEV (eGFP-JEV [1]) | CC50 at 48 h (Cytotoxicity assay) [µM] | viral RNA copies (JEV genome RNA) | EC50 (WT-JEV [3]) [µM] | further results
OC(c1cc(C(F)(F)F)nc2c(C(F)(F)F)cccc12)C1CCCCN1 (centres unmarked) [Mefloquine] | potent inhibitor of JEV |  |  |  | 
C#C[C@@]1(O)[C@H](O)[C@@H](CO)O[C@H]1n1ccc2c(N)ncnc21 [NITD008] |  |  |  |  | effect on eGFP expression (eGFP-JEV [2]): dose-dependent inhibitory effects
CCCCCCCCCCCCCCCC[N+](C)(C)C [cetrimonium bromide] | newly discovered inhibitors of JEV | 7.88 | decreased in a dose-dependent manner | 2.23 | 
CCCCCCCCCCCCCCCC[n+]1ccccc1 [cetylpyridinium chlorid, cetylpyridinium chloride] | newly discovered inhibitors of JEV |  | decreased in a dose-dependent manner |  | 
Oc1c(Cl)cc(Cl)c(Cl)c1Cc1c(O)c(Cl)cc(Cl)c1Cl [hexachlorophene] | newly discovered inhibitors of JEV | 10 |  | 0.421 | SI (selective index, ratio of CC50 to EC50) (WT-JEV [3]): > 10
CCOC(=O)C1=C(C)NC(C)=C(C(=O)OCC)C1c1ccccc1/C=C/C(=O)OC(C)(C)C [lacidipine] | identified as hits |  |  |  | 
NC(=O)N1CCC(CC(=O)N2CCC([C@H]3c4ncc(Br)cc4CCc4cc(Cl)cc(Br)c43)CC2)CC1 [lonafarnib] | newly discovered inhibitors of JEV | 11.4 | decreased in a dose-dependent manner | 0.982 | effect on virus propagation, compound added pre-infection (-1 to 0 h) (WT-JEV [4]): no effect on virus propagation; reduction in viral titer, compound added during viral infection (0-1 h) (WT-JEV [4]): 60%; viral titers, compound added post infection (1, 2, 4, 6, 8 h) (WT-JEV [4]): significantly reduced; SI (selective index, ratio of CC50 to EC50) (WT-JEV [3]): > 10
COC(=O)C1=C(C)NC(C)=C(C(=O)OCCN2CCN(C(c3ccccc3)c3ccccc3)CC2)C1c1cccc([N+](=O)[O-])c1 (centres unmarked) [manidipine] | identified as hits |  |  |  | 
COc1c(C)c2c(c(O)c1C/C=C(\C)CCC(=O)O)C(=O)OC2 [mycophenolic acid] | identified as hits |  |  |  | 
O=[N+]([O-])c1ccc(O)c2ncccc12 [nitroxoline] | newly discovered inhibitors of JEV | 9.29 | decreased in a dose-dependent manner | 2.48 | 
CC[C@@H]1/C=C(\C)C[C@H](C)C[C@H](OC)[C@H]2O[C@@](O)(C(=O)C(=O)N3CCCC[C@H]3C(=O)O[C@H](/C(C)=C/[C@@H]3CC[C@H](Cl)[C@H](OC)C3)[C@H](C)[C@@H](O)CC1=O)[C@H](C)C[C@@H]2OC [pimecrolimus] | identified as hits |  |  |  | 
CC(C)OC(=O)[C@H](C)N[P@](=O)(OC[C@H]1O[C@@H](n2ccc(=O)[nH]c2=O)[C@](C)(F)[C@@H]1O)Oc1ccccc1 [sofosbuvir] | active |  |  |  | 

From paper PMC7395821 (Antiviral Research, 2020)
